Results reported in patent publication EP4603105A1, “PHARMACEUTICAL COMPOSITION CONTAINING CYCLIC COMPOUND HAVING SELECTIVE KRAS INHIBITORY EFFECT AGAINST HRAS AND NRAS” (CHUGAI SEIYAKU KABUSHIKI KAISHA, priority 2022, dated 2024).
pIC50: −log10 of the molar value. *1 amine or outer side, *2 acyl side, *3 side chain or, on linkers, in order; H or OH if unused. Where a SMILES comes first, the peptide text is derived from it. Bridges are numbered along the chain shown (N, C = ends). [ ]: non-standard residue; d: D form. The star is where a group is joined. hPhe(3-Cl-4-CF3) = N[C@@H](CCc1ccc(C(F)(F)F)c(Cl)c1)C(=O)O; NPrPhe(4-CF3) = CCCN[C@@H](Cc1ccc(C(F)(F)F)cc1)C(=O)O; X30 = CCN([C@H](C(=O)[*:2])C1CCCC1)[*:1]; NMeGly(cPent) = CN[C@H](C(=O)O)C1CCCC1; Pro(4,4-F2) = O=C(O)[C@@H]1CC(F)(F)CN1; NMeD = CN[C@@H](CC(=O)O)C(=O)O; NMeL = CN[C@@H](CC(C)C)C(=O)O; Morpholide = C1CN(*)CCO1; NMeA = CN[C@@H](C)C(=O)O; dNMeA = CN[C@H](C)C(=O)O; Ac5c = NC1(C(=O)O)CCCC1; Aze = O=C(O)[C@@H]1CCN1; Ac4c = NC1(C(=O)O)CCC1; Sar = CNCC(=O)O

What was measured:
[1] = tested on: human lung cancer strain NCI-H441; assay type: cell-based
Summary of the method: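 Proliferation was scored by […] measured after the reagent was added to cultures kept at 37°C in 5% carbon dioxide.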

[2] = target: GDP-bound NRAS wild-type protein (Homo sapiens, UniProt P01111); test: Binding to NRAS by surface plasmon resonance (SPR), KD and KD ratio to KRAS
Summary of the method: (§1)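 Single-cycle kinetics on GDP-loaded biotin-Avi RAS captured to ~100–300 RU; 75 s ascending injections, 100 µL/min, 30°C. HBS pH 7.4 + 10 mM MgCl2/10 µM GDP/4% DMSO. 1:1 fit, KD.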

[3] = target: HRAS wild-type protein (Homo sapiens, UniProt P01112); test: Binding to HRAS by surface plasmon resonance (SPR), KD and KD ratio to KRAS
Summary of the method: as §1

[4] = ratio of KD for GDP-bound NRAS wild-type protein to KD for KRAS
[5] = ratio of KD for HRAS wild-type protein to KD for KRAS

GDP-bound NRAS wild-type protein, sequence (P01111 whole entry): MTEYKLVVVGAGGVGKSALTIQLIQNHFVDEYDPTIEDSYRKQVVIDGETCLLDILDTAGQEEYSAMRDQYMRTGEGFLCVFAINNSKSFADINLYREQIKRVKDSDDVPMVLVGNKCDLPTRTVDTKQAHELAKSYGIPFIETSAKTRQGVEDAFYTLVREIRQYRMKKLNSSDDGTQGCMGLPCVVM
HRAS wild-type protein, sequence (P01112 whole entry): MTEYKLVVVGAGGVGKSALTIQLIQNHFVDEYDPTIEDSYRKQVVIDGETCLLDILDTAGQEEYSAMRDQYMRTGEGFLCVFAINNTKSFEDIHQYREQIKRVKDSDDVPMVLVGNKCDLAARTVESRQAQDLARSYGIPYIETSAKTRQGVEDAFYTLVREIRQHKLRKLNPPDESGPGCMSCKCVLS

pIC50 [1]	SMILES	NRAS /KRAS [2, 4]	HRAS /KRAS [3, 5]	NRAS /KRAS ([2]; ratio of the KD value with respect to GDP-bound NRAS wild-type protein to the KD value with respect to KRAS)	HRAS /KRAS ([3]; ratio of the KD value with respect to HRAS wild-type protein to the KD value with respect to KRAS)
7.67	CCO[C@@H]1C[C@H]2C(=O)NC3(CCC3)C(=O)N(C)[C@@H](C3CCCC3)C(=O)N(C)[C@H](C(=O)N(C)C)CC(=O)N(C)[C@@H](COC)C(=O)N[C@@H]([C@@H](C)CC)C(=O)N(C)CC(=O)N(C)[C@H]3C/C=C\CCN(C3=O)[C@@H](Cc3ccc(C(F)(F)F)cc3)C(=O)N(C)CC(=O)N[C@@H](CCc3cc(F)c(C(F)(F)F)c(F)c3)C(=O)N2C1 [PP1113]	A (a compound having 10 or more and less than 20 is denoted as A)	A (a compound having 10 or more and less than 20 is denoted as A)		
8.17	CCO[C@@H]1C[C@H]2C(=O)NC3(CCC3)C(=O)N(C)[C@@H](C3CCCC3)C(=O)N(C)[C@H](C(=O)N(C)C)CC(=O)N(C)[C@@H](CC)C(=O)N[C@@H]([C@@H](C)CC)C(=O)N(C)CC(=O)N(C)[C@H]3CCCCN(C3=O)[C@@H](Cc3ccc(C(F)(F)F)cc3)C(=O)N(C)CC(=O)N[C@@H](CCc3ccc(Cl)c(Cl)c3)C(=O)N2C1 [PP0987]	C (A compound having a KD ratio of 0.1 or more and less than 3 is denoted as C)	C (A compound having a KD ratio of 0.1 or more and less than 3 is denoted as C)		
7.01	CCO[C@@H]1C[C@H]2C(=O)NC3(CCC3)C(=O)N(C)[C@@H](C3CCCC3)C(=O)N(C)[C@H](C(=O)N3CCOCC3)CC(=O)N(C)[C@@H](CC(C)C)C(=O)N[C@@H]([C@@H](C)CC)C(=O)N(C)CC(=O)N(C)[C@H]3CCCCCN(C3=O)[C@@H](Cc3ccc(F)c(C)c3)C(=O)N(C)CC(=O)N[C@@H](CCc3cc(F)c(C(F)(F)F)c(F)c3)C(=O)N2C1 [PP0922]	B (a compound having 3 or more and less than 10 is denoted as B)	B (a compound having 3 or more and less than 10 is denoted as B)		

Further lines, the compound ahead of its results:

SMILES	pIC50 [1]	NRAS /KRAS [2, 4]	HRAS /KRAS [3, 5]	NRAS /KRAS ([2]; ratio of the KD value with respect to GDP-bound NRAS wild-type protein to the KD value with respect to KRAS)	HRAS /KRAS ([3]; ratio of the KD value with respect to HRAS wild-type protein to the KD value with respect to KRAS)
CC[C@H](C)[C@@H]1NC(=O)[C@H](COC)N(C)C(=O)C[C@@H](C(=O)N2CCOCC2)N(C)C(=O)[C@H](C2CCCC2)N(C)C(=O)C2(CCC2)NC(=O)[C@@H]2C[C@H](OC)CN2C(=O)[C@H](CCc2cc(F)c(C(F)(F)F)c(F)c2)NC(=O)CN(C)C(=O)[C@H](Cc2ccc(C(F)(F)F)cc2)N2CCCCC[C@@H](C2=O)N(C)C(=O)CN(C)C1=O [PP0836]	6.44	B (a compound having 3 or more and less than 10 is denoted as B)	B (a compound having 3 or more and less than 10 is denoted as B)		
CCCN1C(=O)CN(C)C(=O)CN(C)C(=O)[C@H]([C@@H](C)CC)NC(=O)[C@H](CC(C)C)N(C)C(=O)C[C@@H](C(=O)N2CCOCC2)N(C)C(=O)[C@H](C2CCCC2)N(C)C(=O)C2(CCCC2)NC(=O)[C@@H]2CCCN2C(=O)[C@H](CCc2ccc(C(F)(F)F)c(Cl)c2)NC(=O)[C@@H](C)N(C)C(=O)[C@@H]1Cc1ccc(C(F)(F)F)cc1 [PP0148] ([NMeL]I[Sar][Sar][NPrPhe(4-CF3)][dNMeA][hPhe(3-Cl-4-CF3)]P[Ac5c][NMeGly(cPent)][NMeD]-Morpholide; lactam N-11)	7.42	B (a compound having 3 or more and less than 10 is denoted as B)	B (a compound having 3 or more and less than 10 is denoted as B)		
CCCN1C(=O)[C@@H]2CCN2C(=O)[C@H](C)N(C)C(=O)[C@H]([C@@H](C)CC)NC(=O)[C@H](CC(C)C)N(C)C(=O)C[C@@H](C(=O)N(C)C)N(C)C(=O)[C@H](C2CCCC2)N(C)C(=O)C2(CCC2)NC(=O)[C@@H]2CC(F)(F)CN2C(=O)[C@H](CCc2ccc(C(F)(F)F)c(Cl)c2)NC(=O)CN(C)C(=O)[C@@H]1Cc1ccc(C(F)(F)F)cc1 [PP0437] ([NMeL]I[NMeA][Aze][NPrPhe(4-CF3)][Sar][hPhe(3-Cl-4-CF3)][Pro(4,4-F2)][Ac4c][NMeGly(cPent)][NMeD]-NMe2; lactam N-11)	8.92			C (A compound having a KD ratio of 0.1 or more and less than 3 is denoted as C)	B (a compound having 3 or more and less than 10 is denoted as B)
CC[C@H](C)[C@@H]1NC(=O)[C@H](CC(C)C)N(C)C(=O)C[C@@H](C(=O)N2CCOCC2)N(C)C(=O)[C@H](C2CCCC2)N(C)C(=O)C2(CCCC2)NC(=O)[C@@H]2CCCN2C(=O)[C@H](CCc2ccc(C(F)(F)F)c(Cl)c2)NC(=O)CN(C)C(=O)[C@H](C2CCCC2)N(CC)C(=O)CN(C)C(=O)CN(C)C1=O [PP0024] ([NMeL]I[Sar][Sar][X30][Sar][hPhe(3-Cl-4-CF3)]P[Ac5c][NMeGly(cPent)][NMeD]-Morpholide; lactam N-11)	6.99	B (a compound having 3 or more and less than 10 is denoted as B)	C (A compound having a KD ratio of 0.1 or more and less than 3 is denoted as C)		
